Reference: patent US10981932B2, “Macrocyclic indole derivatives” (Bayer Aktiengesellschaft, priority 2016, dated 2021)
Counter-ions that a name gives are not always drawn. Like-named read-outs stand apart in the source and are kept apart here.

Columns and labels:
[1] = system: SUDHL5; assay: Induction of caspase-3/7 activity (Caspase-Glo 3/7), SUDHL5; format: cell-based; conditions: caspase-3/7 induction, SUDHL5 cells, 3 h treatment, median
Summary of the method: (§1)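 DLBCL cells treated with compounds for 3 h at 37 °C, then caspase-3/7 activity read by Caspase-Glo 3/7 luminescence. Medium-only background subtracted; EC50 fitted with C0 fixed at 1 and top set to the reference compound's maximal induction.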

[2] = system: SUDHL10; assay: Anti-proliferative effect (CellTiter-Glo, 72 h), SUDHL10; format: cell-based; conditions: SUDHL10 cells, antiproliferation, median, read-out: Antiproli SUDHL10 [M] (median)
Summary of the method: (§2)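 A time zero plate, read with CellTiter-Glo shortly after seeding, served as baseline; compound-treated plates were incubated 72 h at 37 °C and then read identically by luminescence.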

[3] = system: SUDHL5; assay: Induction of cytotoxicity (CellTiter-Glo, 5 h), SUDHL5
Method: Therefore, cytotoxicity assays were run in parallel in SUDHL5 and SUDHL10 cells.
The different cell lines were plated in culture medium (RPMI 1640 [GIBCO #22400-089]supplemented with 10% Fetal Bovine Serum) at a density of 3.300 cells in 30 μl/well in a sterile, solid black, flat bottom, polystyrene, TC-treated 384-well microplate (Corning #3571) using Multidrop Combi Reagent Dispenser. As a control, medium without cells was also added to the plate. Cells were incubated in a humidified incubator at 37° C. overnight. On the next day, the cells were treated with compounds (stock solution, 10 mM in DMSO) using the HP D300 Digital Dispenser in a concentration range of 3.3×10e-5 M (33 μM) to 5×10e-9 M (5 nM) in a single-dot curve with at least 16 dilutions and a DMSO concentration of 0.33%. Rim wells were excluded. The cells were incubated for 5 h hours in a humidified incubator at 37° C. After this incubation, 30 μl of CellTiter-Glo@ Luminescent Cell Viability reagent (Promega, G7573) was added to each well using the Multidrop Combi Reagent Dispenser, followed by 15 min incubation on a shaker at room temperature. Finally, luminescence was read at 0.1 ms, with a gain of 3000 using the PHERAstar FS microplate reader (BMG Labtech).
The Bella DRC Master Sheet was used to calculate IC50s, with fixed CI=0 and C0=1.

[4] = system: SUDHL5; assay: Anti-proliferative effect (CellTiter-Glo, 72 h), SUDHL5; format: cell-based; conditions: SUDHL5 cells, antiproliferation, median, read-out: Antiproli SUDHL5 [M] (median)
Summary of the method: as §2

[5] = system: A2780; assay: Anti-proliferative effect (CellTiter-Glo, 72 h), A2780; format: cell-based; conditions: A2780 cells, median, read-out: IC50 antiproliferation assay A2780 [M] (median)
Summary of the method: as §2

[6] = target: MCL-1 (Homo sapiens, UniProt Q07820); assay: Protein-protein interaction assay MCL-1/Noxa BH3 peptide (MCL-1 assay), TR-FRET; format: binding; conditions: MBP-MCL-1 / Noxa BH3-derived peptide, median
Chain of MCL-1 (Q07820 whole entry): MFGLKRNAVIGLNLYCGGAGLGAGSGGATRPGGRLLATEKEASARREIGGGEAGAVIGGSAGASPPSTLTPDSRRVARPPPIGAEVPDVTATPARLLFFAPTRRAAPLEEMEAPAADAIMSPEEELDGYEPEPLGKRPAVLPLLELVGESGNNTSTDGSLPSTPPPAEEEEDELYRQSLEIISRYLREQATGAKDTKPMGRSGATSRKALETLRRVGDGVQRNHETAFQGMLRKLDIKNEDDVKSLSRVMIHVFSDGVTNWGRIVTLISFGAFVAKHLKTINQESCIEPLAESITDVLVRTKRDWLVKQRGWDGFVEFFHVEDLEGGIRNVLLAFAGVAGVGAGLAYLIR
Summary of the method: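 TR-FRET, 665/622 nm emission ratio (excitation 330–350 nm), measured MCL-1/Noxa complex formation. 1 nM MBP-MCL-1, 50 mM Tris/HCl pH 7, 0.1% BGG, 2 mM DTT. Incubation 1 h at 22 °C, then overnight at 4 °C. IC50 by 4-parameter regression, normalized to DMSO (0%) and no-MCL-1 (100%) controls.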

[7] = system: SUDHL10; assay: Induction of cytotoxicity (CellTiter-Glo, 5 h), SUDHL10
[8] = system: SUDHL10; assay: Induction of caspase-3/7 activity (Caspase-Glo 3/7), SUDHL10; format: cell-based; conditions: caspase-3/7 induction, SUDHL10 cells, 3 h treatment, median
Summary of the method: as §1

[9] = Homo sapiens, SU-DHL10, 72 h, 72 h incubation
[10] = read-out: Cytotox SUDHL5 [M] (median), SUDHL5 cells, cytotoxicity induction, CellTiter-Glo, 5 h incubation, median
[11] = Homo sapiens, SU-DHL10, 5 h, read-out: Cytotox SUDHL10 [M] (median), SUDHL10 cells, cytotoxicity induction, CellTiter-Glo, 5 h incubation, median
[12] = read-out: Cytotox SUDHL10 [M] (median), SUDHL10 cells, cytotoxicity induction, CellTiter-Glo, 5 h incubation, median
[13] = Homo sapiens, SU-DHL-5, 72 h, 72 h incubation

Structure (SMILES) | EC50 ([1]; Homo sapiens, SU-DHL-5, 3 h) [µM] | IC50 ([2]; Homo sapiens, SU-DHL10, 72 h, 72 h) [M] | IC50 ([3]; Homo sapiens, SU-DHL-5, 5 h, read-out: Cytotox SUDHL5 [M] (median), SUDHL5 cells, cytotoxicity induction, CellTiter-Glo, 5 h, median) | IC50 ([4]; Homo sapiens, SU-DHL-5, 72 h, 72 h) [M] | IC50 ([5]; Homo sapiens, A2780, 72 h) [M] | IC50 [6] [µM] | IC50 ([7]; Homo sapiens, SU-DHL10, 5 h, read-out: Cytotox SUDHL10 [M] (median), SUDHL10 cells, cytotoxicity induction, CellTiter-Glo, 5 h, median) | EC50 ([8]; Homo sapiens, SU-DHL10, 3 h) [µM] | EC50 [1] [µM] | IC50 [2, 9] [M] | IC50 [3, 10] [M] | IC50 ([4]; 72 h incubation) [M] | IC50 [7, 11] [M] | IC50 [7, 12] [M] | EC50 [8] [µM] | IC50 ([2]; 72 h incubation) [M] | IC50 [5] [M] | IC50 [4, 13] [M]
Cc1ccc2c(C(C)CCOc3cccc4c3CCCC4)c(C(=O)O)n3c2c1-c1c(nn(C)c1C)COCCCC3 (racemic) [Example 363, 11,12,13-trimethyl-1-(4-((5,6,7,8-tetrahydronaphthalen-1-yl)oxy)butan-2-yl)-4,5,6,7,9,11-hexahydropyrazolo[4′,3′:9,10][1,6]oxaazacycloundecino[8,7,6-hi]indole-2-carboxylic Acid (Mixture of Stereoisomers)] | 20.2 | 1.13e-05 | 1.68e-05 | 1.14e-05 | 1.54e-05 | 0.042 | 2.97e-05 | 23.1 | – | – | – | – | – | – | – | – | – | –
Cn1nc(COc2cncnc2)c2c1COCCCCn1c(C(=O)O)c(CCCOc3cccc4ccccc34)c3cccc-2c31 (single isomer, unassigned) [Example 211, 1-methyl-7-[3-(naphthalen-1-yloxy)propyl]-3-[(pyrimidin-5-yloxy)methyl]-1,10,11,12,13,15-hexahydropyrazolo[4′,3′:9,10][1,6]oxazacycloundecino[8,7,6-hi]indole-8-carboxylic Acid] | – | – | – | – | > 3.3e-05 | 0.174 | – | > 33 | > 33 | 4.44e-06 | > 3.3e-05 | 2.44e-06 | > 3.3e-05 | – | – | – | – | –
Cn1ccnc1COCc1nn(C)c2c1-c1cccc3c(CCCOc4cccc5ccccc45)c(C(=O)O)n(c13)CCCCOC2 (single isomer, unassigned) [Example 232, (+)-1-methyl-3-{[(1-methyl-1H-imidazol-2-yl)methoxy]methyl}-7-[3-(naphthalen-1-yloxy)propyl]-1,10,11,12,13,15-hexahydropyrazolo[4′,3′:9,10][1,6]oxazacycloundecino[8,7,6-hi]indole-8-carboxylic Acid] | – | – | – | – | > 3.3e-05 | 0.00974 | – | – | 9.57 | 1.97e-05 | 7.5e-06 | 2.94e-06 | – | 1.32e-05 | 13.1 | – | – | –
Cn1ccnc1COCc1nn(C)c2c1-c1cccc3c(CCCOc4cccc5ccccc45)c(C(=O)O)n(c13)CCCCOC2 (single isomer, unassigned) [Example 233, (−)-1-methyl-3-{[(1-methyl-1H-imidazol-2-yl)methoxy]methyl}-7-[3-(naphthalen-1-yloxy)propyl]-1,10,11,12,13,15-hexahydropyrazolo[4′,3′:9,10][1,6]oxazacycloundecino[8,7,6-hi]indole-8-carboxylic Acid] | – | – | – | – | – | 0.242 | – | – | 25.3 | – | 2.15e-05 | 9.23e-06 | – | > 3.3e-05 | > 33 | 1.85e-05 | > 3.3e-05 | –
O=C(O)c1c(CCCOc2cccc3ccccc23)c2cccc3c2n1CCCCOCc1nn2c(c1-3)OCCC2 (single isomer, unassigned) [Example 248, 1-[3-(naphthalen-1-yloxy)propyl]-4,5,6,7,13,14-hexahydro-9H,12H-[1,3]oxazino[3″,2″:1′,5]pyrazolo[4′,3′:9,10][1,6]oxazacycloundecino[8,7,6-hi]indole-2-carboxylic Acid] | – | – | – | – | 2.34e-05 | 0.00474 | – | – | 3.17 | 8.78e-06 | 3.38e-06 | 6.51e-06 | – | 1.29e-05 | 12.9 | – | > 3.3e-05 | –
O=C(O)c1c(CCCOc2cccc3ccccc23)c2cccc3c2n1CCCCOCc1nn2c(c1-3)OCCC2 (single isomer, unassigned) [Example 249, 1-[3-(naphthalen-1-yloxy)propyl]-4,5,6,7,13,14-hexahydro-9H,12H-[1,3]oxazino[3″,2″:1′,5′]pyrazolo[4′,3′:9,10][1,6]oxazacycloundecino[8,7,6-hi]indole-2-carboxylic Acid] | – | – | – | – | – | 0.0427 | – | – | > 33 | – | > 3.3e-05 | 1.79e-05 | – | > 3.3e-05 | > 33 | 7.58e-06 | 1.82e-05 | –
O=C(O)c1c(CCCOc2cccc3ccccc23)c2cccc3c2n1CCCCOCc1nn2c(c1-3)COCC2 (single isomer, unassigned) [Example 251, 1-[3-(naphthalen-1-yloxy)propyl]-4,5,6,7,12,13-hexahydro-9H,15H-[1,4]oxazino[4″,3″:1′,5]pyrazolo[4′,3′:9,10][1,6]oxazacycloundecino[8,7,6-hi]indole-2-carboxylic acid-N-ethylethanamine Salt] | – | – | – | – | 2.84e-05 | 0.0484 | – | > 33 | > 33 | 5.15e-06 | > 3.3e-05 | – | > 3.3e-05 | – | – | – | – | 6.23e-06
Cc1ccc2c(C(C)CCOc3cccc4ccccc34)c(C(=O)O)n3c2c1-c1c(C)nn(C)c1COCCCC3 (single isomer, unassigned) [Example 257, 1,3,4-trimethyl-7-[4-(naphthalen-1-yloxy)butan-2-yl]-1,10,11,12,13,15-hexahydropyrazolo[4′,3′:9,10][1,6]oxazacycloundecino[8,7,6-hi]indole-carboxylic Acid] | – | – | – | – | 1.9e-05 | 0.669 | – | – | > 33 | – | > 3.3e-05 | 2e-05 | – | > 3.3e-05 | > 33 | 8.12e-06 | – | –
Cc1ccc2c(C(C)CCOc3cccc4ccccc34)c(C(=O)O)n3c2c1-c1c(C)nn(C)c1COCCCC3 (single isomer, unassigned) [Example 258, 1,3,4-trimethyl-7-[4-(naphthalen-1-yloxy)butan-2-yl]-1,10,11,12,13,15-hexahydropyrazolo[4′,3′:9,10][1,6]oxazacycloundecino[8,7,6-hi]indole-8-carboxylic Acid] | – | – | – | – | – | 12 | – | – | > 33 | – | > 3.3e-05 | 1.92e-05 | – | > 3.3e-05 | > 33 | 1.16e-05 | 2.3e-05 | –
Cc1ccc2c(C(C)CCOc3cccc4ccccc34)c(C(=O)O)n3c2c1-c1c(C)nn(C)c1COCCCC3 (single isomer, unassigned) [Example 259, 1,3,4-trimethyl-7-[4-(naphthalen-1-yloxy)butan-2-yl]-1,10,11,12,13,15-hexahydropyrazolo[4′3′:9,10][1,6]oxazacycloundecino[8,7,6-hi]indole-8-carboxylic Acid] | – | – | – | – | – | 0.577 | – | – | 31.3 | – | > 3.3e-05 | > 3.3e-05 | – | > 3.3e-05 | > 33 | 2.96e-05 | 2.21e-05 | –
Cc1cc(OCCCc2c(C(=O)O)n3c4c(cccc24)-c2c(C)nn(C)c2COCCCC3)cc(C)c1Cl (single isomer, unassigned; enantiomer 1) [Example 010, 7-[3-(4-chloro-3,5-dimethylphenoxy)propyl]-1,3-dimethyl-1,10,11,12,13,15-hexahydropyrazolo[4′,3′:9,10][1,6]oxazacycloundecino[8,7,6-hi]indole-8-carboxylic acid-N-ethylethanamine Salt (Enantiomer 1)] | – | – | – | – | 2.06e-05 | 0.00496 | – | 18.6 | 6.62 | – | 7.4e-06 | – | 2.27e-05 | – | – | 3.91e-06 | – | 1.27e-05
